Converted amounts (≈) assume the structure as drawn. “And” between values parts separate entries of the source, which are not always exact repeats. Equal values may be shown once. Read-outs that look alike come from different tables or passages of the source.
Columns and labels:
Mtb strain H37Rv [1] = assay type: cell-based, Mycobacterium tuberculosis
Mtb DHFR [2] = biological target: T1, Mtb DHFR (Mycobacterium tuberculosis, UniProt P9WNX1); assay type: biochemical; details: read-out: Enzyme IC50 Mtb; purified Mtb DHFR
T1 sequence (P9WNX1 whole entry): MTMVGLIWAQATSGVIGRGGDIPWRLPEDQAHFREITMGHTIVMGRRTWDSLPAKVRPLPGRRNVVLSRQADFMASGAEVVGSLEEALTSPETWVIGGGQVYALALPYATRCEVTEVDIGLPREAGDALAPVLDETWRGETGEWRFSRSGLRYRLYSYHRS

[3] = assay type: in vitro ADME
[4] = system: intracellular Mtb growth in macrophages (THP-1 cells); assay: Intracellular assay of Mtb clearance in THP-1 cells; assay type: cell-based, Mycobacterium tuberculosis; details: Mtb in THP-1 cells
Mtb DHFR [5] = biological target: T1, Mtb DHFR; details: cited from earlier work; for inhibition of the Mtb DHFR enzyme: result in words
Mtb strain H37Rv [6] = details: cited from earlier work; for activity against live Mtb: result in words; for MIC90 wt: wild-type Mtb, ref Nixon et al.[15]
[7] = in vivo; cited from earlier work
human DHFR = biological target: T2, human DHFR (Homo sapiens, UniProt P00374); assay: Biochemical assay of human DHFR; details: read-out: Enzyme IC50 Human; recombinant human DHFR
T2 sequence (P00374 1-187): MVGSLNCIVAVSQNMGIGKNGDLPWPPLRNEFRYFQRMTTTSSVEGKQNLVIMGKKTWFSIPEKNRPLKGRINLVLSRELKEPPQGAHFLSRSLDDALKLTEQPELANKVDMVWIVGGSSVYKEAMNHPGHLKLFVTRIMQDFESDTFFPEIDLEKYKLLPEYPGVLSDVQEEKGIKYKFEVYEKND

SMILES	MIC90 wt (Mtb strain H37Rv [1])	in vitro clearance in mouse microsomes [3] [mg/mL·g]	Tox50 HepG2 (HepG2) [µM]	inhibition of the Mtb DHFR enzyme (Mtb DHFR [5])	activity against live Mtb (Mtb strain H37Rv [6])	further results
N#Cc1ccc(Cn2ccc3c4c(N)nc(N)nc4ccc32)cc1 [PQD-1]	0.5 µM and 0.50 µM	<0.5	10	–	–	IC50 (Mtb DHFR [2]): 10.1 nM; intracell MIC90 [4]: 0.7 µM
COc1cc(NCc2ccc3nc(N)nc(N)c3c2C)cc(OC)c1OC [Trimetrexate]	–	–	–	strong inhibition	poor or no activity	MIC90 wt (Mtb strain H37Rv [6]): 6.3 µM (≈ 2.33 µg/mL); MIC90 wt (Mtb strain H37Rv [6]; listed as trimetrexate): 6.25 µM (≈ 2.31 µg/mL)
CC1(C)N=C(N)N=C(N)N1OCCCOc1cc(Cl)c(Cl)cc1Cl [WR99210]	1 to 2 µM	<0.5	40	–	–	cell health: membrane permeability (HepG2 human hepatocytes): 19 µM; cell health: mitochondrial potential (HepG2 human hepatocytes): 25 µM; cell health: nuclear morphology (HepG2 human hepatocytes): 10 µM; IC50 (Mtb DHFR [5]; read-out: Enzyme IC50 Mtb, ref Nixon et al.[15]): 14 nM; toxicity in humans [7]: acute gastrointestinal toxicity; IC50 (human DHFR): 9 nM
CN(Cc1cnc2nc(N)nc(N)c2n1)c1ccc(C(=O)N[C@@H](CCC(=O)O)C(=O)O)cc1 [methotrexate]	–	–	–	–	poor or no activity	–
CCc1nc(N)nc(N)c1-c1ccc(Cl)cc1 [pyrimethamine]	–	–	–	strong inhibition	poor or no activity	–
